# Source: patent publication EP0121012A1, “Oral compositions” (UNILEVER PLC, priority 1983, dated 1984)
# What was measured:
# [1] = test system: S.mutans 6715; assay: Inhibition of bacterial growth (24 h, optical density); assay type: cell-based, Streptococcus mutans; conditions: recalculated as ppm F, 1440 min
# [2] = test system: S.mutans OMZ-176; assay: as above; assay type: cell-based, Streptococcus mutans; conditions: for IC50: 50% inhibition in growth, 24 hours, means of triplicate experiments, read-out: ID/50 (the source's name); for ID/50: recalculated as ppm F, 1440 min
# [3] = test system: S.salivarius SS4; assay: as above; assay type: cell-based, Streptococcus salivarius; conditions: for IC50: 50% inhibition in growth, 24 hours, means of triplicate experiments, read-out: ID/50 (the source's name); for ID/50: recalculated as ppm F, 1440 min
# [4] = test system: S.salivarius H-257; assay: as above; assay type: cell-based, Streptococcus salivarius; conditions: for IC50: 50% inhibition in growth, 24 hours, means of triplicate experiments, read-out: ID/50 (the source's name); for ID/50: recalculated as ppm F, 1440 min
# [5] = test system: S.sanguis 10556; assay: as above; assay type: cell-based, Streptococcus sanguis; conditions: for IC50: 50% inhibition in growth, 24 hours, means of triplicate experiments, read-out: ID/50 (the source's name); for ID/50: recalculated as ppm F, 1440 min
# [6] = test system: S.sanguis 10557; assay: as above; assay type: cell-based, Streptococcus sanguis; conditions: for IC50: 50% inhibition in growth, 24 hours, means of triplicate experiments, read-out: ID/50 (the source's name); for ID/50: recalculated as ppm F, 1440 min
# [7] = test system: L.casei; assay: as above; assay type: cell-based, Lactobacillus casei; conditions: for IC50: 50% inhibition in growth, 24 hours, means of triplicate experiments, read-out: ID/50 (the source's name); for ID/50: recalculated as ppm F, 1440 min
# [8] = Dissolution of hydroxyapatite discs following fluoride treatment (phosphate release)
# [9] = test system: Osborne-Mendel rats; assay: Rat caries study; assay type: in vivo
# [10] = Stability of solution on standing (haze / turbidity)
# [11] = normal temperature and pressure
# [12] = test system: Artificial Plaque; assay: In vitro antiplaque study on saliva-coated aluminium plummets; assay type: cell-based; conditions: means ± 95% confidence limits, five replicas
# [13] = pH of aqueous solution; assay type: physicochemical
# Text: An aqueous solution of ZnNH4F3 has a pH of 5.8. The preferred pH of oral compositions containing ZnNH4F3 is from 4.5 to 8.0. A 1000 ppm F^- solution was stable.
# [14] = Availability of F ion by fluoride-selective electrode; assay type: physicochemical; conditions: Orion fluoride electrode
# [15] = complexing between the Zn and NH4; cited from earlier work
# [16] = 1000 ppm F- solution, pH 4.0, vs disc treated with buffer alone, means of triplicate, 30 min
# [17] = 1000 ppm F- solution, pH 5.0, vs disc treated with buffer alone, means of triplicate, 30 min
# [18] = 1000 ppm F- solution, pH 6.0, vs disc treated with buffer alone, means of triplicate, 30 min
# [19] = 1000 ppm F- solution, pH 7.0, vs disc treated with buffer alone, means of triplicate, 30 min
Compound,ID/50 [1] [ppm F],IC50 [2] [mM],ID/50 [2] [ppm F],IC50 [3] [mM],ID/50 [3] [ppm F],IC50 [4] [mM],ID/50 [4] [ppm F],IC50 [5] [mM],ID/50 [5] [ppm F],IC50 [6] [mM],ID/50 [6] [ppm F],IC50 [7] [mM],ID/50 [7] [ppm F],"% Reduction in Dissolution [8, 16] [%]","% Reduction in Dissolution [8, 17] [%]","% Reduction in Dissolution [8, 18] [%]","% Reduction in Dissolution [8, 19] [%]",Percentage Inhibition of Growth of Artificial Plaque ([12]; Zinc Conc. 6.0 mM/L),Percentage Inhibition of Growth of Artificial Plaque ([12]; Zinc Conc. 15.0 mM/L),Percentage Inhibition of Growth of Artificial Plaque ([12]; Zinc Conc. 30.0 mM/L),other results
[F-].[Na+] [NaF],138,16.3,309,13.4,255,3.77,72,1.18,22,1.82,35,> 12,352,44,36,31,31,,,,"Caries/ Rat ([9]; 1000 ppm F-, topical to molar teeth, 21 days, cariogenic diet, only severe lesions (B & C) scored, water control 5.25): 3.69; % Reduction ([9]; reduction in caries based on the water control, 1000 ppm F-, topical, 21 days): 29.7%"
Cl.N.[Cl-].[Cl-].[Zn+2] [ZnNH4Cl3],,,,6.5,,,,0.46,,,,10,,,,,,,,,
[F][Sn][F] [SnF2],,,,,,,,,,,,,,57,54,45,43,,,,stability of solution ([10]; after 24 hours at room temperature): developed turbidity
[F][Zn][F] [ZnF2],,,,,,,,,,,,,,,,,,,,,solubility [11]: 1.5%
O=S(=O)([O-])[O-].[Zn+2] [ZnSO4],,7.5,,6,,0.75,,0.36,,0.4,,10.4,,,,,,47 ± 14,51 ± 14,64 ± 14,
zinc ammonium fluoride [ZnNH4F3],92,3.05,174,1.88,104,0.34,19,0.21,12,0.25,14,4.7,268,,,,,45 ± 14,48 ± 14,60 ± 14,"% Reduction in Dissolution ([8]; hydroxyapatite discs, pH 4, 30 min): 52%; % Reduction in Dissolution ([8]; hydroxyapatite discs, pH 5, 30 min): 49%; % Reduction in Dissolution ([8]; hydroxyapatite discs, pH 6, 30 min): 43%; % Reduction in Dissolution ([8]; hydroxyapatite discs, pH 7, 30 min): 40%; % Reduction ([9]; rat, in vivo): 30.9%; Caries/ Rat ([9]; rat, in vivo): 3.63; pH of aqueous solution [13]: 5.8; availability of F ion ([14]; solution at 1000 ppm F level): 100%; availability of F ion ([14]; solution at 2500 ppm F level): 100%; log K [15]: 2.18-2.59; stability of solution ([10]; 1000 ppm F- solution, not hazy on standing after several weeks): stable"
